Source: PubChem BioAssay AID1919004 (Molecular Pharmacology Branch, DTP, NCI, 2023)

System: 883617-216-R-J1-PDC complex spheroids, growth, % test/control
Assay: Anticancer human tumor 883617-216-R-J1-PDC patient-derived bladder carcinoma cell line growth inhibition [AhR]
Conditions: for IC50: curve of first compound; for viability, T/C: stronger effect = lower value
Procedure, shortened: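 Complex tumor spheroids co-cultured with HUVEC and human MSC stroma; AhR antagonists tested in combination with standard-of-care and investigational agents. Top concentration at or near clinical Cmax (else 10 microM), half-log dilutions; growth expressed as percent test/control.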

[1] = second compound 0.1 µM, first compound 0.0316 µM
[2] = second compound 0.1 µM, first compound 0.1 µM
[3] = second compound 0.1 µM, first compound 0.316 µM
[4] = second compound 0.1 µM, first compound 1 µM
[5] = second compound 0.1 µM, first compound 3.16 µM
[6] = second compound 0.1 µM, first compound 10 µM
[7] = second compound 0.316 µM, first compound 0.0316 µM
[8] = second compound 0.316 µM, first compound 0.1 µM
[9] = second compound 0.316 µM, first compound 0.316 µM
[10] = second compound 0.316 µM, first compound 1 µM
[11] = second compound 0.316 µM, first compound 3.16 µM
[12] = second compound 0.316 µM, first compound 10 µM
[13] = second compound 1 µM, first compound 0.0316 µM
[14] = second compound 1 µM, first compound 0.1 µM
[15] = second compound 1 µM, first compound 0.316 µM
[16] = second compound 1 µM, first compound 1 µM
[17] = second compound 1 µM, first compound 3.16 µM
[18] = second compound 1 µM, first compound 10 µM
[19] = second compound 3.16 µM, first compound 0.0316 µM
[20] = second compound 3.16 µM, first compound 0.1 µM
[21] = second compound 3.16 µM, first compound 0.316 µM
[22] = second compound 3.16 µM, first compound 1 µM
[23] = second compound 3.16 µM, first compound 3.16 µM
[24] = second compound 3.16 µM, first compound 10 µM
[25] = second compound 10 µM, first compound 0.0316 µM
[26] = second compound 10 µM, first compound 0.1 µM
[27] = second compound 10 µM, first compound 0.316 µM
[28] = second compound 10 µM, first compound 1 µM
[29] = second compound 10 µM, first compound 3.16 µM
[30] = second compound 10 µM, first compound 10 µM
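Further: exposure lasted 7 days after dosing on day 3 of spheroid growth.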

## CC1(C)CCC(CN2CCN(c3ccc(C(=O)NS(=O)(=O)c4ccc(NCC5CCOCC5)c([N+](=O)[O-])c4)c(Oc4cnc5[nH]ccc5c4)c3)CC2)=C(c2ccc(Cl)cc2)C1 + Cc1ccccc1N=Nc1ccc(NC(=O)c2ccnn2C)c(C)c1
Second compound 0.1 µM
  IC50: > 10000 nM
Second compound 0.316 µM
  IC50: > 10000 nM
Second compound 1 µM
  IC50: > 10000 nM
Second compound 3.16 µM
  IC50: > 10000 nM
Second compound 10 µM
  IC50: > 10000 nM
[1]
  viability, T/C: 97.5%
[2]
  viability, T/C: 90.6%
[3]
  viability, T/C: 97%
[4]
  viability, T/C: 99.9%
[5]
  viability, T/C: 88.5%
[6]
  viability, T/C: 61.4%
[7]
  viability, T/C: 95.5%
[8]
  viability, T/C: 85.9%
[9]
  viability, T/C: 88.9%
[10]
  viability, T/C: 85.3%
[11]
  viability, T/C: 83.9%
[12]
  viability, T/C: 54.9%
[13]
  viability, T/C: 97.8%
[14]
  viability, T/C: 85.4%
[15]
  viability, T/C: 82.5%
[16]
  viability, T/C: 80.2%
[17]
  viability, T/C: 79.7%
[18]
  viability, T/C: 67.1%
[19]
  viability, T/C: 85.7%
[20]
  viability, T/C: 82.6%
[21]
  viability, T/C: 87.4%
[22]
  viability, T/C: 84.8%
[23]
  viability, T/C: 76.5%
[24]
  viability, T/C: 57%
[25]
  viability, T/C: 81.9%
[26]
  viability, T/C: 85.1%
[27]
  viability, T/C: 82%
[28]
  viability, T/C: 77%
[29]
  viability, T/C: 74%
[30]
  viability, T/C: 54.7%

## O=C(C=Cc1cccc(S(=O)(=O)Nc2ccccc2)c1)NO + Cc1ccccc1N=Nc1ccc(NC(=O)c2ccnn2C)c(C)c1
Second compound 0.1 µM
  IC50: 1570 nM
Second compound 0.316 µM
  IC50: 1730 nM
Second compound 1 µM
  IC50: 1370 nM
Second compound 3.16 µM
  IC50: 1530 nM
Second compound 10 µM
  IC50: 1580 nM
[1]
  viability, T/C: 86.6%
[2]
  viability, T/C: 80%
[3]
  viability, T/C: 77.1%
[4]
  viability, T/C: 56.6%
[5]
  viability, T/C: 36.6%
[6]
  viability, T/C: 2.17%
[7]
  viability, T/C: 89.2%
[8]
  viability, T/C: 88.1%
[9]
  viability, T/C: 77.6%
[10]
  viability, T/C: 68%
[11]
  viability, T/C: 32%
[12]
  viability, T/C: 2.44%
[13]
  viability, T/C: 76.7%
[14]
  viability, T/C: 96.8%
[15]
  viability, T/C: 69.1%
[16]
  viability, T/C: 56.8%
[17]
  viability, T/C: 31.2%
[18]
  viability, T/C: 1.92%
[19]
  viability, T/C: 70.9%
[20]
  viability, T/C: 87.2%
[21]
  viability, T/C: 73.3%
[22]
  viability, T/C: 62.9%
[23]
  viability, T/C: 28.2%
[24]
  viability, T/C: 1.87%
[25]
  viability, T/C: 74.6%
[26]
  viability, T/C: 76.3%
[27]
  viability, T/C: 68.1%
[28]
  viability, T/C: 63.1%
[29]
  viability, T/C: 32%
[30]
  viability, T/C: 2.57%

## Nc1ncn(C2CC(O)C(CO)O2)c(=O)n1 (stereo not given) + Cc1ccccc1N=Nc1ccc(NC(=O)c2ccnn2C)c(C)c1
Second compound 0.1 µM
  IC50: > 1000 nM
Second compound 0.316 µM
  IC50: > 1000 nM
Second compound 1 µM
  IC50: > 1000 nM
Second compound 3.16 µM
  IC50: > 1000 nM
Second compound 10 µM
  IC50: > 1000 nM
Second compound 0.1 µM, first compound 0.00316 µM
  viability, T/C: 89.3%
Second compound 0.1 µM, first compound 0.01 µM
  viability, T/C: 94.7%
[1]
  viability, T/C: 83.6%
[2]
  viability, T/C: 82.8%
[3]
  viability, T/C: 75.5%
[4]
  viability, T/C: 73.1%
Second compound 0.316 µM, first compound 0.00316 µM
  viability, T/C: 82.9%
Second compound 0.316 µM, first compound 0.01 µM
  viability, T/C: 83.5%
[7]
  viability, T/C: 87.8%
[8]
  viability, T/C: 80.1%
[9]
  viability, T/C: 78.8%
[10]
  viability, T/C: 76.6%
Second compound 1 µM, first compound 0.00316 µM
  viability, T/C: 79.9%
Second compound 1 µM, first compound 0.01 µM
  viability, T/C: 88.1%
[13]
  viability, T/C: 101%
[14]
  viability, T/C: 77.9%
[15]
  viability, T/C: 67.6%
[16]
  viability, T/C: 77.1%
Second compound 3.16 µM, first compound 0.00316 µM
  viability, T/C: 71.1%
Second compound 3.16 µM, first compound 0.01 µM
  viability, T/C: 84.2%
[19]
  viability, T/C: 75.8%
[20]
  viability, T/C: 72.8%
[21]
  viability, T/C: 79.6%
[22]
  viability, T/C: 81.2%
Second compound 10 µM, first compound 0.00316 µM
  viability, T/C: 84.7%
Second compound 10 µM, first compound 0.01 µM
  viability, T/C: 79.2%
[25]
  viability, T/C: 74.3%
[26]
  viability, T/C: 77.7%
[27]
  viability, T/C: 74.2%
[28]
  viability, T/C: 77.9%

## CCc1c2c(nc3ccc(O)cc13)-c1cc3c(c(=O)n1C2)COC(=O)[C@]3(O)CC + Cc1cncc(-c2nc(NCCc3c[nH]c4ccccc34)c3ncn(C(C)C)c3n2)c1
Second compound 0.1 µM
  IC50: 270 nM
Second compound 0.316 µM
  IC50: > 300 nM
Second compound 1 µM
  IC50: > 300 nM
Second compound 3.16 µM
  IC50: 265 nM
Second compound 10 µM
  IC50: < 0.949 nM
Second compound 0.1 µM, first compound 0.000949 µM
  viability, T/C: 85.1%
Second compound 0.1 µM, first compound 0.003 µM
  viability, T/C: 79.9%
Second compound 0.1 µM, first compound 0.00949 µM
  viability, T/C: 79%
Second compound 0.1 µM, first compound 0.03 µM
  viability, T/C: 71.2%
Second compound 0.1 µM, first compound 0.0949 µM
  viability, T/C: 61.1%
Second compound 0.1 µM, first compound 0.3 µM
  viability, T/C: 49%
Second compound 0.316 µM, first compound 0.000949 µM
  viability, T/C: 83.9%
Second compound 0.316 µM, first compound 0.003 µM
  viability, T/C: 94.5%
Second compound 0.316 µM, first compound 0.00949 µM
  viability, T/C: 77.5%
Second compound 0.316 µM, first compound 0.03 µM
  viability, T/C: 65.8%
Second compound 0.316 µM, first compound 0.0949 µM
  viability, T/C: 56.4%
Second compound 0.316 µM, first compound 0.3 µM
  viability, T/C: 54.3%
Second compound 1 µM, first compound 0.000949 µM
  viability, T/C: 87.6%
Second compound 1 µM, first compound 0.003 µM
  viability, T/C: 89.3%
Second compound 1 µM, first compound 0.00949 µM
  viability, T/C: 84.7%
Second compound 1 µM, first compound 0.03 µM
  viability, T/C: 72.5%
Second compound 1 µM, first compound 0.0949 µM
  viability, T/C: 64.3%
Second compound 1 µM, first compound 0.3 µM
  viability, T/C: 53.9%
Second compound 3.16 µM, first compound 0.000949 µM
  viability, T/C: 91.9%
Second compound 3.16 µM, first compound 0.003 µM
  viability, T/C: 99.5%
Second compound 3.16 µM, first compound 0.00949 µM
  viability, T/C: 86.1%
Second compound 3.16 µM, first compound 0.03 µM
  viability, T/C: 88.9%
Second compound 3.16 µM, first compound 0.0949 µM
  viability, T/C: 55.8%
Second compound 3.16 µM, first compound 0.3 µM
  viability, T/C: 49.4%
Second compound 10 µM, first compound 0.000949 µM
  viability, T/C: 44.6%
Second compound 10 µM, first compound 0.003 µM
  viability, T/C: 48.3%
Second compound 10 µM, first compound 0.00949 µM
  viability, T/C: 27.3%
Second compound 10 µM, first compound 0.03 µM
  viability, T/C: 31.3%
Second compound 10 µM, first compound 0.0949 µM
  viability, T/C: 25.5%
Second compound 10 µM, first compound 0.3 µM
  viability, T/C: 27.1%
